Reference: patent publication US4603217A, “Ester substituted alkyl-2-(2,6-dichloroanilino)phenyl acetates” (priority 1983, dated 1986)
Where two headings read alike, the source gives them in different places.

Tests used:
carrageenan edema = assay: inhibition test of carrageenan edema employing a foot-pad edema method; format: in vivo, male Wister rats; conditions: for ED50: Rattus norvegicus, read-out: ED50 for inhibition for carrageenan edema; for anti-inflammatory activity compared with IM: relative to IM
Description: Anti-inflammatory action was investigated according to the method of Winter et al [cf. Pro. Soc. Exp. Biol. Med., 111, 544 (1962)] by the inhibition test of carrageenan edema employing a foot-pad edema method using carrageenan as an irritating agent and male Wister rats weighing 130 to 170 g.

in vivo [1] = conditions: rat, po
Experimental: Gastrointestinal ulcer formation action, which is a principal side effect of an acid anti-inflammatory drug, was investigated according to the method of Okabe et al [cf. […] The compounds of the present invention, IM, DF and acemethacin were suspended in 5% Tween-80 solution and administered orally 1 ml/100 g body weight to the rats, respectively. At 6 hrs after the administration, the state of glandstomach was observed by means of a dissecting microscope whether the ulcer having a diameter more than 1 mm was generated or not.

[2] = Rate of hydrolysis in rat plasma; format: in vitro ADME; conditions: in 1 ml of plasma rat (37° C., incubation for 1 hr)
Experimental: **in 1 ml of plasma rat (37° C., incubation for 1 hr)

[3] = potentiating effect on thiopental-induced sleep in mice; format: in vivo, male ddY mice; conditions: mouse, in vivo, po
Experimental: (§1) Effect on central nervous system, which is another side effect of IM, was investigated according to the potentiating effect on thiopental-induced sleep in mice as follows: Male ddY mice weighing 20 to 24 g were subjected to fasting for 15 hrs. […] At 30 mins after the administration, thiopental sodium was injected intravenously to each of the mice in an amount of 35 mg/l kg body weight, and then, the sleeping time was observed. When the sleeping time of the mice to which the Test Compound was administered was longer than 2 times that of the control to which only Tween-80 was administered, the given Test Compound was judged to be effective on thiopental-induced sleep potentiating effect.

thiopental-induced sleep = assay: as above; format: in vivo, male ddY mice; conditions: for potentiating effect on thiopental-induced sleep relative to IM: mouse, in vivo
Experimental: as §1

ultraviolet erythema = assay: inhibition action for ultraviolet erythema; format: in vivo, male Hartley guinea pigs; set-up: 2 hs after the irradiation, Average ± standard error / 3 hs after the irradiation, Average ± standard error / 5 hs after the irradiation, Average ± standard error: scale not given here; 2 hs after the irradiation, Rate for inhibition / 3 hs after the irradiation, Rate for inhibition / 5 hs after the irradiation, Rate for inhibition: unit not given here; conditions: for 2 hs after the irradiation, Average ± standard error / 2 hs after the irradiation, Rate for inhibition: 2 hs after irradiation; for 2 hs after the irradiation, Average ± standard error / 2 hs after the irradiation, Rate for inhibition / 3 hs after the irradiation, Average ± standard error / 3 hs after the irradiation, Rate for inhibition / 5 hs after the irradiation, Average ± standard error / 5 hs after the irradiation, Rate for inhibition / duration of the pharmacological effect: guinea pigs; for 3 hs after the irradiation, Average ± standard error / 3 hs after the irradiation, Rate for inhibition: 3 hs after irradiation; for 5 hs after the irradiation, Average ± standard error / 5 hs after the irradiation, Rate for inhibition: 5 hs after irradiation; for duration of the pharmacological effect: ultraviolet erythema, oral
Experimental: With respect to Compounds 1 to 3, 15 and 21 which are especially useful as an anti-inflammatory drug, IM and DF, inhibition action for ultraviolet erythema was investigated according to the method of Adames et al [cf. Nature, London, 181, 773 (1958)] using guinea pigs as follows: Male Hartley guinea pigs weighing 250 to 350 g were shaved at their sides the day before and two hrs before the ultraviolet irradiation. To the guinea pigs were administered orally Compounds 1 to 3, 15 and 21, IM and DF in amounts as described in Table 2, respectively. To the control group was administered orally only Tween-80. At 1 hr after the time of administration, the guinea pigs were irradiated at their shaved sides by ultraviolet beam for 40 seconds.
The reaction of the ultraviolet erythema was evaluated at 2 hrs, 3 hrs and 5 hrs after irradiation according to the method of Winder et al [cf. Arch. Int. Pharmacodyn., 116, 261 (1958)]. […] Compounds 1 and 2 show a duration of the pharmacological effect over 5 hrs, contrary to that IM has a duration of 2 hrs.

in vivo [4] = conditions: mouse, po
[5] = male Wister rats, foot-pad edema

Row | SMILES | ED50 (carrageenan edema; [5]) | TD50 at 6 h (in vivo [1]) | metabolised at 1 h [2] | ED50 [3] | potentiating effect on thiopental-induced sleep relative to IM (thiopental-induced sleep) | 2 hs after the irradiation, Average ± standard error (ultraviolet erythema; 3 mg/kg orally) | 2 hs after the irradiation, Rate for inhibition (ultraviolet erythema; 3 mg/kg orally) | 3 hs after the irradiation, Average ± standard error (ultraviolet erythema; 3 mg/kg orally) | 3 hs after the irradiation, Rate for inhibition (ultraviolet erythema; 3 mg/kg orally) | 5 hs after the irradiation, Average ± standard error (ultraviolet erythema; 3 mg/kg orally) | 5 hs after the irradiation, Rate for inhibition (ultraviolet erythema; 3 mg/kg orally) | 2 hs after the irradiation, Average ± standard error (ultraviolet erythema; 10 mg/kg orally) | 2 hs after the irradiation, Rate for inhibition (ultraviolet erythema; 10 mg/kg orally) | 3 hs after the irradiation, Average ± standard error (ultraviolet erythema; 10 mg/kg orally) | 3 hs after the irradiation, Rate for inhibition (ultraviolet erythema; 10 mg/kg orally) | 5 hs after the irradiation, Average ± standard error (ultraviolet erythema; 10 mg/kg orally) | 5 hs after the irradiation, Rate for inhibition (ultraviolet erythema; 10 mg/kg orally) | duration of the pharmacological effect (ultraviolet erythema) | LD50 (in vivo [4]) | also measured
1 | C/C=C/C(=O)OCOC(=O)Cc1c(C)n(C(=O)c2ccc(Cl)cc2)c2ccc(OC)cc12 [Compound 1, Crotonoyloxymethyl[1-(p-chlorobenzoyl)-5-methoxy-2-methyl-3-indolyl]acetate] | 6 mg/kg | 15 mg/kg | 88.9% | 455 mg/kg | 1/4.3 | 1.50 ± 0.337 | 43.8 | 2.08 ± 0.193 | 26.5 | 1.92 ± 0.193 | 32.2 | 1.17 ± 0.322 | 56.2 | 1.58 ± 0.288 | 44.2 | 1.92 ± 0.229 | 32.2 | over 5 hrs | 105 mg/kg | anti-inflammatory activity compared with IM (carrageenan edema): equal anti-inflammatory activity to IM
2 | COc1ccc2c(c1)c(CC(=O)OCOC(=O)C=C(C)C)c(C)n2C(=O)c1ccc(Cl)cc1 [Compound 2, 3,3-Dimethylacryloyloxymethyl[1-(p-chlorobenzoyl)-5-methoxy-2-methyl-3-indolyl]acetate] | 6 mg/kg | 20 mg/kg | 78% |  |  | 1.83 ± 0.297 | 31.5 | 1.83 ± 0.207 | 35.3 | 2.0 ± 0.174 | 29.3 | 0.83 ± 0.241 | 68.9 | 0.83 ± 0.241 | 70.7 | 1.0 ± 0.369 | 64.7 | over 5 hrs | 67 mg/kg | anti-inflammatory activity compared with IM (carrageenan edema): equal anti-inflammatory activity to IM
3 | COc1ccc2c(c1)c(CC(=O)OCCOC(C)=O)c(C)n2C(=O)c1ccc(Cl)cc1 [Compound 3, 2-(Acetoxy)ethyl[1-(p-chlorobenzoyl)-5-methoxy-2-methyl-3-indolyl]acetate] | 6 mg/kg | 15 mg/kg | 97.3% | 600 mg/kg | 1/5.7 | 0.5 ± 0.224 | 81.3 | 2.5 ± 0.224 | 11.7 | 2.83 ± 0.167 | 0 | 0.67 ± 0.333 | 74.9 | 2.3 ± 0.211 | 18.7 | 2.50 ± 0.224 | 11.7 |  | 65 mg/kg | 
4 | C/C=C/C(=O)OC(C)OC(=O)Cc1c(C)n(C(=O)c2ccc(Cl)cc2)c2ccc(OC)cc12 (centres unmarked) [Compound 10, 1-(Crotonoyloxy)ethyl[1-(p-chlorobenzoyl)-5-methoxy-2-methyl-3-indolyl]acetate] | 7 mg/kg | 20 mg/kg | 88.2% | 261 mg/kg | 1/2.5 |  |  |  |  |  |  |  |  |  |  |  |  |  | 65 mg/kg | 
5 | CC=CC=CC(=O)OC(C)OC(=O)Cc1ccccc1Nc1c(Cl)cccc1Cl (centres unmarked) [Compound 21, 1-(2,4-Hexadienoyloxy)ethyl-2-(2,6-dichloroanilino)phenylacetate] | 30 mg/kg | > 80 mg/kg | 78.2% |  |  | 1.33 ± 0.211 | 50.2 | 3.00 ± 0 | 0 | 3.00 ± 0 | 0 | 1.50 ± 0.224 | 43.8 | 2.50 ± 0.224 | 11.7 | 2.50 ± 0.224 | 11.7 |  | 790 mg/kg | inhibition effect for ultraviolet erythema compared with IM and DF (ultraviolet erythema; relative to IM and DF): equal inhibition effect for ultraviolet erythema to that of IM and DF
6 | O=C(O)Cc1ccccc1Nc1c(Cl)cccc1Cl [DF, diclofenac, reference compound] |  |  |  |  |  | 1.17 ± 0.307 | 56.2 | 2.17 ± 0.401 | 23.3 | 2.67 ± 0.211 | 5.7 | 1.17 ± 0.307 | 56.2 | 2.50 ± 0.342 | 11.7 | 2.83 ± 0.167 | 0 |  |  | ED50 (carrageenan edema): 15 mg/kg; potentiating effect on thiopental-induced sleep (in words) (thiopental-induced sleep; mice, oral): did not show the potentiating effect
7 | COc1ccc2c(c1)c(CC(=O)O)c(C)n2C(=O)c1ccc(Cl)cc1 [IM, indomethacin, reference compound] |  |  |  | 205 mg/kg |  | 2.17 ± 0.307 | 18.7 | 2.5 ± 0.224 | 11.7 | 2.83 ± 0.167 | 0 | 1.33 ± 0.217 | 50.2 | 2.83 ± 0.167 | 0 | 3.0 ± 0 | 0 | 2 hrs | 31.5 mg/kg | ED50 (carrageenan edema): 5.5 mg/kg; TD50 at 6 h (in vivo [1]; in vivo): 8 mg/kg
